Source: patent US20240025884A1 (Dong-A ST Co., Ltd., priority 2022, published 2024)

target: GCN2 (Homo sapiens (Human), UniProt Q9P2K8); assay: GCN2 Biochemical Assay (TR-FRET, GFP-eIF2S1 substrate phosphorylation); conditions: read-out: IC50 (GCN2 Inhibitory Activity)
Method: Experimental Example 1: GCN2 Biochemical Assay
An inhibitory effect of the inventive compound on GCN2 was identified as follows.
384-well (Greiner #784075) (or 1536-well [Greiner #782075]) plates containing 60 nl (or 20 nl for 1536-well) of compound in 100% DMSO (10 concentrations serially diluted 3.16-fold) were prepared. Two copies of plates were used—one for the GCN2 assay and a second for an artifact plate. Working reagents were prepared as follows—reaction buffer: Tris pH 7.5 20 mM, MgCl2 5 mM, DTT 1 mM, Brij-35 0.005%, EGTA 0.5 mM in water; 2× enzyme solution: GCN2 (produced in-house) 1.6 nM in reaction buffer; 2× substrate solution: GFP-eIFS1 (Thermo Fisher Scientific, PV4809) 50 nM, ATP 0.2 mM, tRNA 0.4 mg/ml in reaction buffer; p-GFP-eIF2S1 (artifact) solution: p-GFP-eIFS1 (produced by incubation of 100 nM GFP-eIF2S1 in reaction buffer with 100 uM ATP and 1 nM PERK KD enzyme for 3 hr at room temperature) 2 nM in reaction buffer; 3× stop/antibody solution: p-GFP-EIF2S1 Th-Ab (Thermo Fisher Scientific, PV4816) 6 nM, AZ13933939 3 uM, BSA 3% in reaction buffer. Reagents were loaded onto a liquid dispenser (Certus FLEX, Trajan Scientific and Medical), and 3 ul (1 ul for 1536-well) of 2× enzyme solution, followed by 3 ul (1 ul for 1536-well) of 2× substrate solution was added to the plates. When small numbers of plates were processed, the enzyme solution was added first to all plates, then the valve used for the substrate solution was primed immediately prior to use. Plates were tapped or spun 1 min/1K/RT to ensure proper mixing, followed by incubation at room temperature for 70 mins, covered/stacked in the dark. For the artifact plate, 6 ul of p-GFP-eIF2S1 solution was added prior to adding the stop/antibody solution. 3 ul (1 ul for 1536-well) of 3× stop/antibody solution was added to the plates, followed by a spin-down for 1 min/1K/RT, and incubation for 2-3 hr, sealed or covered with lids in the dark at room temperature. Plates were read on a plate reader (PHERAstar FSX, BMF Labtech) at Ex 340/Em 490/Em 520 nm.

Sequence of GCN2 (Q9P2K8 whole entry): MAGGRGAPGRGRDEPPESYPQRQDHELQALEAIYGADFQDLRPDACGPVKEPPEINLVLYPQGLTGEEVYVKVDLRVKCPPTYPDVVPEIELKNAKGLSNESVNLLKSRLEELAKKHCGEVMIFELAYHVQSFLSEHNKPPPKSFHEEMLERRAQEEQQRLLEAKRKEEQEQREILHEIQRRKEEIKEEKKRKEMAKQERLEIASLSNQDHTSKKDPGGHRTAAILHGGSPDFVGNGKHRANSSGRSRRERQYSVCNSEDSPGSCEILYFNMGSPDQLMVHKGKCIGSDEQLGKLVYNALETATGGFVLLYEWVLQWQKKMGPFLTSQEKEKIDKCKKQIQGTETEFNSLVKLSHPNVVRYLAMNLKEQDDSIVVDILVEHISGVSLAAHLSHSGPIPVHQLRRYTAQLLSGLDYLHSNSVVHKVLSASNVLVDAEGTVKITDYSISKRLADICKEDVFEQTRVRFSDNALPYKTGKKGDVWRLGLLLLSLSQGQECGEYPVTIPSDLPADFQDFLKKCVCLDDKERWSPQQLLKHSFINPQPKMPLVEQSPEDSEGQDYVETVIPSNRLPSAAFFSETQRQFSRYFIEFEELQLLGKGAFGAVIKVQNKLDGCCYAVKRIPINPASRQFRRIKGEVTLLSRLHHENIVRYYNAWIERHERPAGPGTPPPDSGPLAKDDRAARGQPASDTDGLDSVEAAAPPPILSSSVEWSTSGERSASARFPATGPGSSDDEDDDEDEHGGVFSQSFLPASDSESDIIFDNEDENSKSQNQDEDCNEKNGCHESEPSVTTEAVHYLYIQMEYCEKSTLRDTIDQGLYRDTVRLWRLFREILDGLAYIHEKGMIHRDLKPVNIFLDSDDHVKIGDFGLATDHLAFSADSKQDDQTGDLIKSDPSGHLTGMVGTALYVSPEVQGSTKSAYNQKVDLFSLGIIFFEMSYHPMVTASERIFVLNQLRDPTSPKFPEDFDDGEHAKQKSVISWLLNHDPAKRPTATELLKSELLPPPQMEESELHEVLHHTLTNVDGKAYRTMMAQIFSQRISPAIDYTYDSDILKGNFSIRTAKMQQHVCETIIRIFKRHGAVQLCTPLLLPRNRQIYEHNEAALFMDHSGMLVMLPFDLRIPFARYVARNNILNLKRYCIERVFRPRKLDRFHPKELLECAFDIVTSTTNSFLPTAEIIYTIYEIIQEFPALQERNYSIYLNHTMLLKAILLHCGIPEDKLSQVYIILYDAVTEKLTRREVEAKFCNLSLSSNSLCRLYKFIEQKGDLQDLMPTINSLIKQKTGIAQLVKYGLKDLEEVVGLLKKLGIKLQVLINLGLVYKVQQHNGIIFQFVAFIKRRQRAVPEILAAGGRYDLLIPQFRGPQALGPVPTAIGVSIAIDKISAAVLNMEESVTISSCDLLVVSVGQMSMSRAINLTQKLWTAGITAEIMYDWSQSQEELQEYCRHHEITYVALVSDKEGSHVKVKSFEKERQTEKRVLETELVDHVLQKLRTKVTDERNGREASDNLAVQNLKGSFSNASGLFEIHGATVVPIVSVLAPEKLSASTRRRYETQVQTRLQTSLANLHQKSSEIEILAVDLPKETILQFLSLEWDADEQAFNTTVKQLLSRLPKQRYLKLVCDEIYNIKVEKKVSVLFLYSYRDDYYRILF

`Cc1cnc(Nc2cc(C)n(C)n2)nc1-c1c[nH]c2c(N(C)C(=O)CN3CC[C@H](Oc4ccncn4)C3)cccc12` [Example 21, (S)-N-(3-(2-((1,5-dimethyl-1H-pyrazol-3-yl)amino)-5-methylpyrimidin-4-yl)-1H-indol-7-yl)-N-methyl-2-(3-(pyrimidin-4-yloxy)pyrrolidin-1-yl)acetamide] and `Cc1cnc(Nc2cc(C)n(C)n2)nc1-c1c[nH]c2c(NC(=O)CN3CC(Oc4ccncn4)C3)cccc12` [Example 29, N-(3-(2-((1,5-dimethyl-1H-pyrazol-3-yl)amino)-5-methylpyrimidin-4-yl)-1H-indol-7-yl)-2-(3-(pyrimidin-4-yloxy)azetidin-1-yl)acetamide] fall in the same range of IC50: 10 to 100 nM for the first, 10 to 100 nM for the second.

`Cc1cnc(Nc2cc(C)n(C)n2)nc1-c1c[nH]c2c(NC(=O)C(C)N3CCCC3)cccc12` (stereo not drawn) [Example 22, N-(3-(2-((1,5-dimethyl-1H-pyrazol-3-yl)amino)-5-methylpyrimidin-4-yl)-1H-indol-7-yl)-2-(pyrrolidin-1-yl)propanamide] and `Cc1cnc(Nc2cc(C)n(C)n2)nc1-c1c[nH]c2c(NC(=O)C(C)(C)N3CCCC3)cccc12` [Example 24, N-(3-(2-((1,5-dimethyl-1H-pyrazol-3-yl)amino)-5-methylpyrimidin-4-yl)-1H-indol-7-yl)-2-methyl-2-(pyrrolidin-1-yl)propenamide] fall in the same range of IC50: 100 to 1000 nM for the first, 100 to 1000 nM for the second.

First: Cc1cnc(Nc2cc(C)n(C)n2)nc1-c1c[nH]c2c(NC(=O)C(C)N3CC[C@H](Oc4ccncc4)C3)cccc12 (stereo partly drawn) [Example 23, N-(3-(2-((1,5-dimethyl-1H-pyrazol-3-yl)amino)-5-methylpyrimidin-4-yl)-1H-indol-7-yl)-2-((S)-3-(pyridin-4-yloxy)pyrrolidin-1-yl)propenamide]
Second: Cc1cnc(Nc2cc(C)n(C)n2)nc1-c1c[nH]c2c(NC(=O)C(C)(C)N3CC[C@H](Oc4ccncc4)C3)cccc12 [Example 25, (S)-N-(3-(2-((1,5-dimethyl-1H-pyrazol-3-yl)amino)-5-methylpyrimidin-4-yl)-1H-indol-7-yl)-2-methyl-2-(3-(pyridin-4-yloxy)pyrrolidin-1-yl)propanamide]
The IC50 of the first is lower: 100 to 1000 nM for the first, > 1000 nM for the second. The first is the more potent here.

`Cc1cnc(Nc2cc(C)n(C)n2)nc1-c1c[nH]c2c(NC(=O)CN3CC(O)C3)cccc12` [Example 26, N-(3-(2-((1,5-dimethyl-1H-pyrazol-3-yl)amino)-5-methylpyrimidin-4-yl)-1H-indol-7-yl)-2-(3-hydroxyazetidin-1-yl)acetamide] and `Cc1cnc(Nc2cc(C)n(C)n2)nc1-c1c[nH]c2c(NC(=O)CN3CC(C(=O)O)C3)cccc12` [Example 32, 1-(2-((3-(2-((1,5-dimethyl-1H-pyrazol-3-yl)amino)-5-methylpyrimidin-4-yl)-1H-indol-7-yl)amino)-2-oxoethyl)azetidine-3-carboxylic acid] fall in the same range of IC50: 10 to 100 nM for the first, 10 to 100 nM for the second.

`Cc1cnc(Nc2cc(C)n(C)n2)nc1-c1c[nH]c2c(NC(=O)CN3CC(OCc4ccncc4)C3)cccc12` [Example 27, N-(3-(2-((1,5-dimethyl-1H-pyrazol-3-yl)amino)-5-methylpyrimidin-4-yl)-1H-indol-7-yl)-2-(3-(pyridin-4-ylmethoxy)azetidin-1-yl)acetamide] and `Cc1cnc(Nc2cc(C)n(C)n2)nc1-c1c[nH]c2c(NC(=O)CN3CC(Oc4ccncc4)C3)cccc12` [Example 28, N-(3-(2-((1,5-dimethyl-1H-pyrazol-3-yl)amino)-5-methylpyrimidin-4-yl)-1H-indol-7-yl)-2-(3-(pyridin-4-yloxy)azetidin-1-yl)acetamide] fall in the same range of IC50: 10 to 100 nM for the first, 10 to 100 nM for the second.

`Cc1cnc(Nc2cc(C)n(C)n2)nc1-c1c[nH]c2c(NC(=O)CN3CC(Oc4cccnc4)C3)cccc12` [Example 30, N-(3-(2-((1,5-dimethyl-1H-pyrazol-3-yl)amino)-5-methylpyrimidin-4-yl)-1H-indol-7-yl)-2-(3-(pyridin-3-yloxy)azetidin-1-yl)acetamide] and `Cc1cnc(Nc2cc(C)n(C)n2)nc1-c1c[nH]c2c(NC(=O)CN3CCC(Oc4cccnc4)CC3)cccc12` [Example 38, N-(3-(2-((1,5-dimethyl-1H-pyrazol-3-yl)amino)-5-methylpyrimidin-4-yl)-1H-indol-7-yl)-2-(4-(pyridin-3-yloxy)piperidin-1-yl)acetamide] fall in the same range of IC50: 100 to 1000 nM for the first, 100 to 1000 nM for the second.

`COC(=O)C1CN(CC(=O)Nc2cccc3c(-c4nc(Nc5cc(C)n(C)n5)ncc4C)c[nH]c23)C1` [Example 31, methyl 1-(2-((3-(2-((1,5-dimethyl-1H-pyrazol-3-yl)amino)-5-methylpyrimidin-4-yl)-1H-indol-7-yl)amino)-2-oxoethyl)azetidine-3-carboxylate] and `Cc1cnc(Nc2cc(C)n(C)n2)nc1-c1c[nH]c2c(NC(=O)CN3CC(Oc4cc(C(=O)NC5CC5)on4)C3)cccc12` [Example 33, N-cyclopropyl-3-((1-(2-((3-(2-((1,5-dimethyl-1H-pyrazol-3-yl)amino)-5-methylpyrimidin-4-yl)-1H-indol-7-yl)amino)-2-oxoethyl)azetidin-3-yl)oxy)isoxazole-5-carboxamide] fall in the same range of IC50: 10 to 100 nM for the first, 10 to 100 nM for the second.

`Cc1cnc(Nc2cc(C)n(C)n2)nc1-c1c[nH]c2c(NC(=O)CN3CC=C(c4ccncc4)CC3)cccc12` [Example 34, 2-(3,6-dihydro-[4,4′-bipyridin]-1(2H)-yl)-N-(3-(2-((1,5-dimethyl-1H-pyrazol-3-yl)amino)-5-methylpyrimidin-4-yl)-1H-indol-7-yl)acetamide] and `Cc1cnc(Nc2cc(C)n(C)n2)nc1-c1c[nH]c2c(NC(=O)CN3CC=C(c4cnn(C)c4)CC3)cccc12` [Example 35, N-(3-(2-((1,5-dimethyl-1H-pyrazol-3-yl)amino)-5-methylpyrimidin-4-yl)-1H-indol-7-yl)-2-(4-(1-methyl-1H-pyrazol-4-yl)-3,6-dihydropyridin-1(2H)-yl)acetamide] fall in the same range of IC50: 100 to 1000 nM for the first, 100 to 1000 nM for the second.

`Cc1cnc(Nc2cc(C)n(C)n2)nc1-c1c[nH]c2c(NC(=O)CN3CCC(N4CCN(C)CC4)CC3)cccc12` [Example 36, N-(3-(2-((1,5-dimethyl-1H-pyrazol-3-yl)amino)-5-methylpyrimidin-4-yl)-1H-indol-7-yl)-2-(4-(4-methylpiperazin-1-yl)piperidin-1-yl)acetamide] and `Cc1cnc(Nc2cc(C)n(C)n2)nc1-c1c[nH]c2c(NC(=O)CN3CCC(N4CCOCC4)CC3)cccc12` [Example 37, N-(3-(2-((1,5-dimethyl-1H-pyrazol-3-yl)amino)-5-methylpyrimidin-4-yl)-1H-indol-7-yl)-2-(4-morpholinopiperidin-1-yl)acetamide] fall in the same range of IC50: 100 to 1000 nM for the first, 100 to 1000 nM for the second.

First: Cc1cnc(Nc2cc(C)n(C)n2)nc1-c1c[nH]c2c(NC(=O)CN3CCC(Oc4ccccn4)CC3)cccc12 [Example 39, N-(3-(2-((1,5-dimethyl-1H-pyrazol-3-yl)amino)-5-methylpyrimidin-4-yl)-1H-indol-7-yl)-2-(4-(pyridin-2-yloxy)piperidin-1-yl)acetamide]
Second: Cc1cnc(Nc2cc(C)n(C)n2)nc1-c1c[nH]c2c(NC(=O)CN3CCC(Oc4ncccn4)CC3)cccc12 [Example 41, N-(3-(2-((1,5-dimethyl-1H-pyrazol-3-yl)amino)-5-methylpyrimidin-4-yl)-1H-indol-7-yl)-2-(4-(pyrimidin-2-yloxy)piperidin-1-yl)acetamide]
The IC50 of the first is higher: 100 to 1000 nM for the first, 10 to 100 nM for the second. The second is the more potent here.

Compared with `Cc1cnc(Nc2cc(C)n(C)n2)nc1-c1c[nH]c2c(NC(=O)CN3CCC(Oc4ccncc4)CC3)cccc12` [Example 40, N-(3-(2-((1,5-dimethyl-1H-pyrazol-3-yl)amino)-5-methylpyrimidin-4-yl)-1H-indol-7-yl)-2-(4-(pyridin-4-yloxy)piperidin-1-yl)acetamide], `Cc1cc(C)nc(OC2CCN(CC(=O)Nc3cccc4c(-c5nc(Nc6cc(C)n(C)n6)ncc5C)c[nH]c34)CC2)n1` [Example 42, N-(3-(2-((1,5-dimethyl-1H-pyrazol-3-yl)amino)-5-methylpyrimidin-4-yl)-1H-indol-7-yl)-2-(4-((4,6-dimethylpyrimidin-2-yl)oxy)piperidin-1-yl)acetamide] is lower in IC50: 100 to 1000 nM for the first, 10 to 100 nM for the second.

First: Cc1cnc(Nc2cc(C)n(C)n2)nc1-c1c[nH]c2c(NC(=O)CN3CCC(Oc4cc(C(=O)NC5CC5)on4)CC3)cccc12 [Example 43, N-cyclopropyl-3-((1-(2-((3-(2-((1,5-dimethyl-1H-pyrazol-3-yl)amino)-5-methylpyrimidin-4-yl)-1H-indol-7-yl)amino)-2-oxoethyl)piperidin-4-yl)oxy)isoxazole-5-carboxamide]
Second: Cc1cnc(Nc2cc(C)n(C)n2)nc1-c1c[nH]c2c(NC(=O)CN3CCCC(Oc4cc(C(=O)NC5CC5)on4)C3)cccc12 (stereo not drawn) [Example 44, N-cyclopropyl-3-((1-(2-((3-(2-((1,5-dimethyl-1H-pyrazol-3-yl)amino)-5-methylpyrimidin-4-yl)-1H-indol-7-yl)amino)-2-oxoethyl)piperidin-3-yl)oxy)isoxazole-5-carboxamide]
The IC50 of the first is lower: 10 to 100 nM for the first, 100 to 1000 nM for the second. The first is the more potent here.
